Experimental data: patent US8877741B2, “Pyrrolidine derivatives, pharmaceutical compositions and uses thereof” (Boehringer Ingelheim International GmbH, priority 2013, dated 2014)

The compounds below were run against human ACC2 (Homo sapiens (Human), UniProt O00763) (assay: ACC2 assay, spectrophotometric 384 well assay (NADH-linked kinetic method)). Settings: human ACC2 construct lacking the 128 N-terminal amino acids; coupled lactate dehydrogenase/pyruvate kinase reaction, 340 nm, 25° C.
Type: biochemical
Summary of the method: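 ADP formation was monitored as NADH consumption at 340 nm for 15 min at 25 °C, using baculovirus-expressed human ACC2 missing its first 128 amino acids, with 500 μM ATP and 2000 μM each of acetyl-CoA and NADH (final). IC50 was fitted by non-linear regression on low-control-subtracted slopes.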

human ACC2, sequence (O00763 129-2458): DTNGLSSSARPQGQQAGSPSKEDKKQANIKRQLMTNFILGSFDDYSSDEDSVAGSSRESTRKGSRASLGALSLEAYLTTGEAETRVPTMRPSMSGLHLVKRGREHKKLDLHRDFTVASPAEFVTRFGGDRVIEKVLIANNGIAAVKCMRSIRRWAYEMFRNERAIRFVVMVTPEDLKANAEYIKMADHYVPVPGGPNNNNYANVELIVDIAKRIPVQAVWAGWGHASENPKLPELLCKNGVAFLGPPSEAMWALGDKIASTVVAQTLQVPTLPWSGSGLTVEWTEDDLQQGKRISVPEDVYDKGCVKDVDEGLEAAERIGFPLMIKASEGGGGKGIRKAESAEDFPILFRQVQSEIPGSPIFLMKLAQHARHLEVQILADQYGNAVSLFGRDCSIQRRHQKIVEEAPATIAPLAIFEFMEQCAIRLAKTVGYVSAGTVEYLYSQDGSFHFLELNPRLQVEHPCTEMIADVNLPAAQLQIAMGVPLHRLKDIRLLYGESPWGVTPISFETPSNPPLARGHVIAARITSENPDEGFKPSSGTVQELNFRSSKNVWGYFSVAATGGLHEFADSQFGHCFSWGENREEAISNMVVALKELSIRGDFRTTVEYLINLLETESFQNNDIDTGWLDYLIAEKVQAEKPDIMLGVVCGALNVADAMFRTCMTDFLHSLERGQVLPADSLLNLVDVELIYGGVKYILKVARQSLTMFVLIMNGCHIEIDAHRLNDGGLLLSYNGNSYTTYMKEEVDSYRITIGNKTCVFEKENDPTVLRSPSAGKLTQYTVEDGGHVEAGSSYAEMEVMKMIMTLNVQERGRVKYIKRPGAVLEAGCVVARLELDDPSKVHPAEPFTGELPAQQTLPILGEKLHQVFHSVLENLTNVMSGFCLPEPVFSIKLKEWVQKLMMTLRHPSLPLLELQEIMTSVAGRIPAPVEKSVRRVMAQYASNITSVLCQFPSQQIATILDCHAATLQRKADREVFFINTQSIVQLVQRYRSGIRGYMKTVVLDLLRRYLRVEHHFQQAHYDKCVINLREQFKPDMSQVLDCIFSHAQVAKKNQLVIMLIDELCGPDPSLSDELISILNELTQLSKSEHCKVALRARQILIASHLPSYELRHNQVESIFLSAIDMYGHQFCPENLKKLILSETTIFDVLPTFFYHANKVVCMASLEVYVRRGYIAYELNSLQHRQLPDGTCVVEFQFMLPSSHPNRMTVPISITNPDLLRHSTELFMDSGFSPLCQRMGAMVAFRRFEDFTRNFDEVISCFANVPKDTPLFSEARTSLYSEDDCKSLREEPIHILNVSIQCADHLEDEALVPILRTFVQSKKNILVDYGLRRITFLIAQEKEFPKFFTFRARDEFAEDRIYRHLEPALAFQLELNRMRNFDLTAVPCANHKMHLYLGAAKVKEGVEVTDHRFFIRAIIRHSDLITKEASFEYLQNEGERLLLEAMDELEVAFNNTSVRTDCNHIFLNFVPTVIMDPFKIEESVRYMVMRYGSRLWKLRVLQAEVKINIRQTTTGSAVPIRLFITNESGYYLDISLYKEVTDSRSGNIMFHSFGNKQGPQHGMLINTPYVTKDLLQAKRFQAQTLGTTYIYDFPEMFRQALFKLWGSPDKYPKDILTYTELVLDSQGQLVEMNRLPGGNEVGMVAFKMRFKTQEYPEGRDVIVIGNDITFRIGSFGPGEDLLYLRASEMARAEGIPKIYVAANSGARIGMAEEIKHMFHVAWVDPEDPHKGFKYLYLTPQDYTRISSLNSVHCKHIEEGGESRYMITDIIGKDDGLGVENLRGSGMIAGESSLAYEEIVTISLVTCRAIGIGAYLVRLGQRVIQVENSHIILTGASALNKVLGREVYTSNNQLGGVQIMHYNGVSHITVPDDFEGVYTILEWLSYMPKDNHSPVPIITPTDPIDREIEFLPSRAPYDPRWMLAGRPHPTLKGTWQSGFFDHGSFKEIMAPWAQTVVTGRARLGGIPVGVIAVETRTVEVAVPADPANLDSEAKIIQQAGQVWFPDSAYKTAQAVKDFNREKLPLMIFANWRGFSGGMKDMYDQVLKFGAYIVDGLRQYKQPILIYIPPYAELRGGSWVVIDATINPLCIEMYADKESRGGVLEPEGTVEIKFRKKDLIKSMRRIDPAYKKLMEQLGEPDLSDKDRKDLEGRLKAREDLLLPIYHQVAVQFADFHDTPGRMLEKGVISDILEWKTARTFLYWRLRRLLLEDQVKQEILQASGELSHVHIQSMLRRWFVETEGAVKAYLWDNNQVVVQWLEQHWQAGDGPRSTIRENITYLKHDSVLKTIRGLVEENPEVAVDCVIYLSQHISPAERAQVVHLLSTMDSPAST

IC50 | SMILES
331 nM | CC(=O)N[C@@H](C)c1ccc(O[C@@H]2CCN(c3cccc(N(C)CC4CCOC4)n3)C2)cc1 (stereo partly shown) [Example 10.25]
34 nM | CCC(=O)N[C@@H](C)c1ccc(OC2CCN(c3ccnc(N4CCC(F)(F)C4)c3F)C2)cc1 (stereo partly shown) [Example 5.3]
65 nM | CC(=O)N[C@@H](C)c1ccc(O[C@@H]2CCN(c3ccnc(NCC(C)(C)O)c3Cl)C2)cc1 [Example 10.51]
510 nM | CC(=O)N[C@@H](C)c1ccc(O[C@@H]2CCN(c3ccc(OCC(F)F)cn3)C2)cc1 [Example 11.1, N—((S)-1-(4-((R)-1-(5-(2,2-Difluoroethoxy)pyridin-2-yl)pyrrolidin-3-yloxy)phenyl)ethyl)acetamide]
57 nM | CC(=O)N[C@@H](C)c1ccc(O[C@@H]2CCN(c3ccnc(NCC4(O)CCC4)c3Cl)C2)cc1 [Example 10.55]
399 nM | CC(=O)N[C@@H](C)c1ccc(O[C@@H]2CCN(c3cccc(N(C)CC(C)C)n3)C2)cc1 [Example 10.36]
138 nM | CC(=O)N[C@@H](C)c1ccc(O[C@@H]2CCN(c3ccnc(OC(C)C)c3Cl)C2)cc1 [Example 9.80]
40 nM | CC(=O)N[C@@H](C)c1ccc(O[C@@H]2CCN(c3ccnc(OC4CCCCC4)c3)C2)cc1 [Example 9.7]
498 nM | CC(=O)N[C@@H](C)c1ccc(O[C@@H]2CCN(c3cccc(N4CCOCC4)n3)C2)cc1 [Example 10.13]
90 nM | CC(=O)N[C@@H](C)c1ccc(O[C@@H]2CCN(c3ccnc(OCC(F)F)c3)C2)cc1 [Example 9.31]
44 nM | CC(=O)N[C@@H](C)c1ccc(O[C@@H]2CCN(c3ccnc(OCC4CC4(F)F)c3F)C2)cc1 (stereo partly shown) [Example 9.62]
900 nM | CC(=O)N[C@@H](C)c1ccc(O[C@@H]2CCN(c3cc(OCC(C)C)ncc3C#N)C2)cc1 [Example 9.56]
534 nM | CC(=O)N[C@@H](C)c1ccc(O[C@@H]2CCN(c3ccnc(OCCc4ccccc4)c3)C2)cc1 [Example 9.12]
45 nM | CCC(=O)Nc1nc(C)c(C(=O)N[C@@H](C)c2ccc(O[C@@H]3CCN(c4ccnc(OCC5CC5)c4Cl)C3)cc2)s1 [Example 9.73]
870 nM | CC(=O)N[C@@H](C)c1ccc(O[C@@H]2CCN(c3ccc(OCC(F)(F)C(F)F)cn3)C2)cc1 [Example 11.2]
691 nM | CCNc1cccc(N2CC[C@@H](Oc3ccc([C@H](C)NC(C)=O)cc3)C2)n1 [Example 10.12]
95 nM | CC(=O)N[C@@H](C)c1ccc(O[C@@H]2CCN(c3ccnc(OCCC(C)C)c3)C2)cc1 [Example 9.34]
149 nM | C[C@H](NC(=O)C1CC1)c1ccc(O[C@@H]2CCN(c3ccnc(OCC4CC4)c3)C2)cc1 [Example 9.39]
535 nM | CC(=O)N[C@@H](C)c1ccc(O[C@@H]2CCN(c3ccnc(OCc4ccccn4)c3)C2)cc1 [Example 9.33]
36 nM | CCCNc1nccc(N2CCC(Oc3ccc([C@H](C)NC(=O)N(C)C)cc3)C2)c1F (stereo partly shown) [Example 5.6]
881 nM | CC(=O)N[C@@H](C)c1ccc(O[C@@H]2CCN(c3ccnc(OCCO)c3F)C2)cc1 [Example 9.75]
745 nM | CC(=O)N[C@@H](C)c1ccc(O[C@@H]2CCN(c3ccnc(O[C@@H]4CCC[C@H]4O)c3)C2)cc1 [Example 9.47]
123 nM | CCN(CC)c1cccc(N2CC[C@@H](Oc3ccc([C@H](C)NC(C)=O)cc3)C2)n1 [Example 10.27]
59 nM | COC(=O)N[C@@H](C)c1ccc(OC2CCN(c3ccc(OCC4CC4(F)F)cn3)C2)cc1 (stereo partly shown) [Example 4.3]
95 nM | C[C@H](NC(=O)C1CC1)c1ccc(O[C@@H]2CCN(c3ccnc(OC4CCC4)c3)C2)cc1 [Example 9.41]
175 nM | COC[C@@H]1CCCN1c1cccc(N2CC[C@@H](Oc3ccc([C@H](C)NC(C)=O)cc3)C2)n1 [Example 10.46]
124 nM | CC(=O)N[C@@H](C)c1ccc(O[C@@H]2CCN(c3cc(OCC(F)F)ncc3F)C2)cc1 [Example 9.70]
438 nM | CC(=O)N[C@@H](C)c1ccc(O[C@@H]2CCN(c3ccnc(C(F)(F)F)c3)C2)cc1 [Example 8.4]

The next lines start with the compound.

SMILES | IC50
C[C@H](NC(=O)CCO)c1ccc(OC2CCN(c3cccc(C(F)(F)F)n3)C2)cc1 (stereo partly shown) [Example 2.55] | 424 nM
CC(=O)N[C@@H](C)c1ccc(O[C@@H]2CCN(c3ccnc(N4CCC5(CC5)C4)c3F)C2)cc1 [Example 1.104] | 24 nM
C[C@H](NC(=O)c1cn[nH]c1)c1ccc(OC2CCN(c3ccnc(OCC4CC4)c3)C2)cc1 (stereo partly shown) [Example 2.86] | 63 nM
C[C@H](NC(=O)CC#N)c1ccc(OC2CCN(c3ccnc(OCC(F)F)c3)C2)cc1 (stereo partly shown) [Example 2.116] | 362 nM
C[C@H](NC(=O)c1cnn(C)c1Cl)c1ccc(OC2CCN(c3ccnc(OCC(F)F)c3)C2)cc1 (stereo partly shown) [Example 2.114] | 611 nM
CC(=O)N[C@@H](C)c1ccc(O[C@@H]2CCN(c3ccnc(N4CCC4)c3F)C2)cc1 [Example 1.101] | 92 nM
C[C@H](NC(=O)C1(C)CC1)c1ccc(OC2CCN(c3ccnc(OCC4CC4)c3)C2)cc1 (stereo partly shown) [Example 2.73] | 65 nM
CC(C#N)C(=O)N[C@@H](C)c1ccc(OC2CCN(c3ccnc(OCC(F)F)c3)C2)cc1 (stereo partly shown) [Example 2.104] | 658 nM
CC(=O)N[C@@H](C)c1ccc(O[C@@H]2CCN(c3cccc(N(C)CC(F)F)n3)C2)cc1 [Example 1.133] | 246 nM
CCOc1cc(N2CCC(Oc3ccc([C@H](C)NC(C)=O)cc3)C2)c(F)cn1 (stereo partly shown) [Example 1.30] | 117 nM
CCc1cccc(N2CCC(Oc3ccc([C@H](C)NC(C)=O)cc3)C2)n1 (stereo partly shown) [Example 1.60] | 202 nM
CC(=O)N[C@@H](C)c1ccc(O[C@@H]2CCN(c3ccnc(N4CCC4)c3C)C2)cc1 [Example 1.126] | 597 nM
CC(=O)N[C@@H](C)c1ccc(OC2CCN(c3ccnc(OC(C)C)c3)C2)cc1 (stereo partly shown) [Example 1.3] | 134 nM
CC(=O)N[C@@H](C)c1ccc(OC2CCN(c3cccc(C4CCCC4)n3)C2)cc1 (stereo partly shown) [Example 1.84] | 115 nM
C[C@H](NC(=O)c1ccon1)c1ccc(OC2CCN(c3ccnc(OCC(F)F)c3)C2)cc1 (stereo partly shown) [Example 2.110] | 263 nM
C[C@H](NC(=O)c1ccnc(C#N)c1)c1ccc(OC2CCN(c3cccc(C(F)(F)F)n3)C2)cc1 (stereo partly shown) [Example 2.62] | 175 nM
CCOc1cnc(N2CCC(Oc3ccc([C@H](C)NC(C)=O)cc3)C2)c(F)c1 (stereo partly shown) [Example 1.9] | 556 nM
CC(=O)N[C@@H](C)c1ccc(OC2CCN(c3cc(OCC4CC4)ncc3C)C2)cc1 (stereo partly shown) [Example 1.25] | 228 nM
CC(=O)N[C@@H](C)c1ccc(O[C@@H]2CCN(c3ccnc(N4CCC(F)(F)C4)c3F)C2)cc1 [Example 1.110] | 23 nM
C[C@H](NC(=O)c1cn[nH]c1)c1ccc(OC2CCN(c3ccc(OCC4CC4(F)F)cn3)C2)cc1 (stereo partly shown) [Example 2.34] | 69 nM
C[C@H](NC(=O)c1ccon1)c1ccc(OC2CCN(c3cccc(C(F)(F)F)n3)C2)cc1 (stereo partly shown) [Example 2.51] | 128 nM

SMILES | IC50
CCCOc1ccc(N2CCC(Oc3ccc([C@H](C)NC(C)=O)cc3)C2)c(C)n1 (stereo partly shown) [Example 1.37] | 360 nM
CCCOc1ccc(N2CC[C@@H](Oc3ccc([C@H](C)NC(=O)c4sc(NC(C)=O)nc4C)cc3)C2)nc1 [Example 1.50] | 170 nM
C[C@H](NC(=O)c1cncs1)c1ccc(OC2CCN(c3ccc(OCC4CC4(F)F)cn3)C2)cc1 (stereo partly shown) [Example 2.59] | 55 nM
CC(=O)Nc1cc(C(=O)N[C@@H](C)c2ccc(OC3CCN(c4ccnc(OC(C)C)c4)C3)cc2)ccn1 (stereo partly shown) [Example 2.26] | 466 nM
CNC(=O)N[C@@H](C)c1ccc(OC2CCN(c3ccnc(OCC4CC4)c3)C2)cc1 (stereo partly shown) [Example 3.5] | 50 nM
C[C@H](NC(=O)C1(C)CC1)c1ccc(OC2CCN(c3cccc(C(F)(F)F)n3)C2)cc1 (stereo partly shown) [Example 2.40] | 139 nM
Cc1cnc(OCC2CC2)cc1N1CCC(Oc2ccc([C@H](C)NC(=O)N(C)C)cc2)C1 (stereo partly shown) [Example 1.56] | 585 nM
C[C@H](NC(=O)CCC#N)c1ccc(OC2CCN(c3cccc(C(F)(F)F)n3)C2)cc1 (stereo partly shown) [Example 2.42] | 675 nM
C[C@H](NC(=O)c1ccno1)c1ccc(OC2CCN(c3ccnc(OCC(F)F)c3)C2)cc1 (stereo partly shown) [Example 2.107] | 389 nM
COc1cccc(N2CCC(Oc3ccc([C@H](C)NC(C)=O)cc3)C2)n1 (stereo partly shown) [Example 1.57] | 678 nM
C[C@H](NC(=O)c1cnn(C)c1)c1ccc(OC2CCN(c3ccnc(OCC(F)F)c3)C2)cc1 (stereo partly shown) [Example 2.102] | 136 nM
CC(=O)N[C@@H](C)c1ccc(O[C@@H]2CCN(c3ccnc(N4CC(F)(F)C4)c3F)C2)cc1 [Example 1.105] | 59 nM
C[C@H](NC(=O)c1cnn(C)c1)c1ccc(OC2CCN(c3cccc(C(F)(F)F)n3)C2)cc1 (stereo partly shown) [Example 2.36] | 130 nM
CCCOc1ccc(N2CCC(Oc3ccc([C@H](C)NC(C)=O)cc3)C2)cn1 (stereo partly shown) [Example 1.4] | 193 nM
CSc1ccc(N2CCC(Oc3ccc([C@H](C)NC(C)=O)cc3)C2)cn1 (stereo partly shown) [Example 1.83] | 2990 nM
COc1c(N2CC[C@@H](Oc3ccc([C@H](C)NC(C)=O)cc3)C2)ccnc1N1CCCC1 [Example 1.136] | 476 nM
C[C@H](NC(=O)c1cnn(C)c1N)c1ccc(OC2CCN(c3ccnc(OCC(F)F)c3)C2)cc1 (stereo partly shown) [Example 2.112] | 298 nM
CCC(=O)N[C@@H](C)c1ccc(OC2CCN(c3ccc(OC[C@H]4CC4(F)F)cn3)C2)cc1 (stereo partly shown) [Example 2.91] | 67 nM
CCC(=O)Nc1nc(C)c(C(=O)N[C@@H](C)c2ccc(O[C@@H]3CCN(c4ccc(OC[C@@H]5CC5(F)F)cn4)C3)cc2)s1 [Example 1.145] | 995 nM
Cc1cncc(C(=O)N[C@@H](C)c2ccc(OC3CCN(c4cccc(C(F)(F)F)n4)C3)cc2)c1 (stereo partly shown) [Example 2.50] | 895 nM
CC(=O)N[C@@H](C)c1ccc(O[C@@H]2CCN(c3ccnc(N4CCC(F)(F)C4)c3C)C2)cc1 [Example 1.124] | 76 nM
